From patent publication US9510593B2, “S-benzylthiouracil compounds and methods of enhancing plant root growth” (Valent BioSciences Corporation, priority 2014, dated 2016)
“Also recorded” adds a separate entry of the source.

Assays:
Format in all cases: in vivo
[1] = system: Maize (cultivar; Kuromochi); assay: Maize growth enhancement by seed treatment under low temperature stress; conditions: for Average weight of the shoots: 2.5° C. for 4 days, 18th day after seeding, control 1.50
Procedure: Maize seeds (cultivar; Kuromochi) were treated with Compound 1 at dose rates of 0.005 gram to 0.5 gram per 100 kilogram seeds. The seeds were sown into a soil pot (one seed/pot) and then cultivated in a growth chamber at a temperature of 27° C. and a day length of 16 hours for 10 days. On the 10th day after seeding, the plants were subjected to a temperature of 2.5° C. for 4 days at a day length of 16 hours. Following the stress treatment, they were cultivated for an additional 4 days in a growth chamber at a temperature of 27° C. and a day length of 16 hours. On the 18th day after seeding, the fresh shoot weight of each plant was measured for 5 replicates.

[2] = system: Rice (cultivar; Nipponbare); assay: Rice growth enhancement by seed treatment under low temperature stress; design: Average weight of the shoots: unit not given here; conditions: for Average weight of the shoots: 4° C. for 6 days, 27th day, control 15.4
Procedure: Rice seeds (cultivar; Nipponbare) were treated with the Compound 1 at dose rates of 0.5 gram to 50 grams per 100 kilogram seeds. Treated rice seeds were sown and cultivated in 2-fold diluted Kimura B hydroponic solution (Plant Science 119:39-47 (1996) in a growth chamber at a temperature of 28° C. (day)/23° C. (night) and a day length of 12 hours for 10 days.
Following hydroponic cultivation for 10 days the plants were exposed to low temperature stress at 4° C. for 6 days at a day length of 12 hours in a growth chamber. After the low temperature stress treatment, the plants were transferred to 4-fold diluted Hoagland's hydroponic solution (California Agricultural Experiment Station 1950 Circular 347 pp. 34) and cultivated for […] at a temperature of 28° C. and a day length of 12 hours. On the 27th day of the sequential hydroponic cultivation, each fresh shoot weight of the plant was measured for 4 replicates.

[3] = system: Arabidopsis accession Columbia; assay: Arabidopsis petri plate (agar medium) assay, root growth; conditions: 6 days after sowing, control 3.3
Procedure: For Arabidopsis, a solid medium was required. Typically, half-strength MS salts were dissolved in water, and 1% (w/v) BactoAgar (DIFCO) was added. Following autoclaving, sterile S-Benzylthiouracil solutions were added to medium prior to pouring 30 mL of agar medium per petri plate. Arabidopsis seeds were sown in a sterile manner, and seeds were germinated and grew on the agar surface until primary root length was measured.
Of increased importance for understanding mode of action, Arabidopsis has become the model system of choice. In Table 20, the effect of Compound 1 in growth medium on root growth of Arabidopsis accession Columbia is shown.

radish cv. Cherry Belle = assay: Radish assay, continuous exposure; conditions: for Root Length / Shoot Length: 6 days; for Root Length: control 3.2; for Shoot Length: control 4.0
Source text: In order to determine if a root crop was sensitive to a S-Benzylthiouracil, we tested the effect of Compound 1 on radish cv. Cherry Belle (Table 21).

rice = assay: Rice pouch assay: growth of primary root and shoot; conditions: for Shoot Length: control 1.7
Procedure: Seeds were placed in germination pouches consisting of germination paper as an insert in a gas-permeable 16×14 cm plastic pouch (CYG Pouch; Mega International, St. Paul, Minn.). In pouch solution evaluation, S-Benzylthiouracil compounds or their salts were dissolved in a small volume of DMSO and added to sterile water with a maximum of 0.5% v/v DMSO at final dilution. The S-Benzylthiouracil solution was subsequently pipetted into the growth pouch, followed by the addition of seeds of the crop being tested. The pouches were arranged in a randomized complete block design in growth racks and placed in 19-liter polycarbonate food storage containers (Rubbermaid Commercial Products, Winchester, Va.). The sealed containers were held in an upright growth cabinet maintained at 25 C with a 12 hour light: 12 hour dark photoperiod. For rice, plants were harvested at 6 d, while in mungbean and corn, the plants were harvested at 4 d post sowing. Measurements were performed on the primary root and shoot of each seedling. The growth of the primary root of rice was examined in the pouch assay system. The results of the testing, presented as percent change in root length across all S-Benzylthiouracil compounds, are shown below.

[4] = 0.5 grams/100-kg seeds, low temperature stress

## Oc1ccnc(SCc2cccc(F)c2)n1 [Compound 1, S-(3-Fluorobenzyl)-2-thiouracil]
[1]; 0.005 grams/100-kg seeds
  Average weight of the shoots: 1.78 gram/plant
[1]; 0.005 grams/100-kg seeds, low temperature stress
  Percent (shoot weight, untreated control = 100): 119%
[1]; 0.05 grams/100-kg seeds
  Average weight of the shoots: 2.06 gram/plant
[1]; 0.05 grams/100-kg seeds, low temperature stress
  Percent (shoot weight, untreated control = 100): 138%
[1]; 0.5 grams/100-kg seeds
  Average weight of the shoots: 1.85 gram/plant
[1]; [4]
  Percent (shoot weight, untreated control = 100): 124%
[1]; across 0.005 to 0.5 gram per 100 kilogram seeds, low temperature stress
  Average fresh shoot weight versus untreated control, in words: larger than that of the untreated control
[2]; 0.5 grams/100-kg seeds
  Average weight of the shoots: 19.7
[2]; [4]
  Percent (shoot weight, untreated control = 100): 128%
[2]; 5 grams/100-kg seeds
  Average weight of the shoots: 39.8
[2]; 5 grams/100-kg seeds, low temperature stress
  Percent (shoot weight, untreated control = 100): 258%
[2]; 50 grams/100-kg seeds
  Average weight of the shoots: 34.8
[2]; 50 grams/100-kg seeds, low temperature stress
  Percent (shoot weight, untreated control = 100): 226%
[2]; across 0.5 to 50 grams per 100 kilogram seeds, low temperature stress
  Average fresh shoot weight versus untreated control, in words: larger than that of the untreated control
[3]; 0.1 ppm
  Root Length: 3.7 cm
[3]; 0.25 ppm
  Root Length: 4.4 cm
[3]; 0.5 ppm
  Root Length: 3.7 cm
[3]; 1.0 ppm
  Root Length: 3.8 cm
Radish cv. Cherry Belle; 1 ppm
  Root Length: 4.1 cm
  Shoot Length: 4.9 cm
Radish cv. Cherry Belle; 10 ppm
  Root Length: 3.0 cm
  Shoot Length: 3.3 cm
Radish cv. Cherry Belle; continuous exposure
  Effect on radish root and shoot growth, in words: increased root and shoot growth
rice; 10 mg/liter, 6 days after sowing, untreated control 9.67
  Root Length: 10.80 cm
rice; 30 mg/liter, 6 days after sowing, untreated control 9.67
  Root Length: 10.34 cm
rice; 7.5 ppm, 6 days after treatment
  Shoot Length: 2.2 cm
rice; 7.5 ppm, 6 days after treatment, control 5.1
  Root Length: 7.8 cm
rice; 10 ppm (10 mg/L), benzyl ring substitutions, vs control
  Percent Change in Primary Root Length in Rice: 19.8%
rice; 10 ppm, compounds and water-soluble salts, 6 days after sowing
  Percent Change (rice primary root growth): 19.8%
rice; 30 ppm, 6 days after treatment
  Shoot Length: 2.2 cm
rice; 30 ppm, 6 days after treatment, control 5.1
  Root Length: 7.3 cm
rice; 100 ppm, 6 days after treatment
  Shoot Length: 1.9 cm
rice; 100 ppm, 6 days after treatment, control 5.1
  Root Length: 5.2 cm
rice; Oryza sativa, 144 h, 10 ppm (10 mg/L), benzyl ring substitutions, vs control, read-out: Percent Change in Primary Root Length in Rice
  change in vivo at 10 ppm: 19.8%
rice; rice pouch assay, compared to control
  Effect on rice root growth, in words: greatest increases in root length compared to all of the other tested compounds; also recorded: dose-dependent increase in root length
